Calls of active or inactive are those of the source.
Key:
[1] = target: T1, RNA-binding protein pos-1 (Caenorhabditis elegans, UniProt G5EF15); assay: inhibitors of POS-1/mex-3 RNA binding, dose response, biochemical, fluorescence polarization (AID 1964);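 note: purified POS-1 fused to maltose binding protein made in E. coli; potency of compounds blocking POS-1 binding to fluorescent RNA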
T1 sequence (G5EF15 whole entry): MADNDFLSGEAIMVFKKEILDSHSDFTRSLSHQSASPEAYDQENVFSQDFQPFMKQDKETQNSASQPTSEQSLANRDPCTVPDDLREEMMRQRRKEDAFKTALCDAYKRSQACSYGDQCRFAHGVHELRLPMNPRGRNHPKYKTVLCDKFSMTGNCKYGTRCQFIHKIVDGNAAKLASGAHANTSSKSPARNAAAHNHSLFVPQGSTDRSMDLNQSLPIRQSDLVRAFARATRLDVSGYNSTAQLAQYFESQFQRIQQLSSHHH

[2] = target: T2, Zinc finger protein mex-5 (Caenorhabditis elegans, UniProt Q9XUB2); assay: MEX-5/TCR-2 RNA interaction inhibitors, dose response, biochemical, C. elegans, fluorescence polarization (AID 1960)
T2 sequence (Q9XUB2 whole entry): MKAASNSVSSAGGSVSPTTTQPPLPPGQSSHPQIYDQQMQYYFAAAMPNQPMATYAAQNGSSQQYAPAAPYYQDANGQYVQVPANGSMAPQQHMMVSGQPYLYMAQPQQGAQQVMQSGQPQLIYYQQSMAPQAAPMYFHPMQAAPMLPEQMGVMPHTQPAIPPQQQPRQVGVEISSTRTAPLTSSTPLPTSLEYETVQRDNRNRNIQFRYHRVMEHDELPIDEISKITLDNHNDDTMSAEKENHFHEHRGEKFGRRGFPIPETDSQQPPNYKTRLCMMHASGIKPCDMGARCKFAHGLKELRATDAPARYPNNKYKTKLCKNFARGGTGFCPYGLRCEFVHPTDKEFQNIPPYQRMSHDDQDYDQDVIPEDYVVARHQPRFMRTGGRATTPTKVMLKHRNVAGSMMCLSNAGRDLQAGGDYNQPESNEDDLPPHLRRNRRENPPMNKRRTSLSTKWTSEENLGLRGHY

[3] = HepG2 cell cytotoxicity, dose response, cytotoxicity control, ATP luminescence, cherry-pick, activator set 2 (AID 1053143); format: functional, cell-based
Mucolipin-3 = target: T3, Mucolipin-3 (Homo sapiens, UniProt Q8TDD5); assay: Dose response cell-based high-throughput screening assay for agonists of the transient receptor potential channel ML3 (TRPML3). [Related pubchem assays: 1526, 1424, 1448 ]; format: functional
T3 sequence (Q8TDD5 whole entry): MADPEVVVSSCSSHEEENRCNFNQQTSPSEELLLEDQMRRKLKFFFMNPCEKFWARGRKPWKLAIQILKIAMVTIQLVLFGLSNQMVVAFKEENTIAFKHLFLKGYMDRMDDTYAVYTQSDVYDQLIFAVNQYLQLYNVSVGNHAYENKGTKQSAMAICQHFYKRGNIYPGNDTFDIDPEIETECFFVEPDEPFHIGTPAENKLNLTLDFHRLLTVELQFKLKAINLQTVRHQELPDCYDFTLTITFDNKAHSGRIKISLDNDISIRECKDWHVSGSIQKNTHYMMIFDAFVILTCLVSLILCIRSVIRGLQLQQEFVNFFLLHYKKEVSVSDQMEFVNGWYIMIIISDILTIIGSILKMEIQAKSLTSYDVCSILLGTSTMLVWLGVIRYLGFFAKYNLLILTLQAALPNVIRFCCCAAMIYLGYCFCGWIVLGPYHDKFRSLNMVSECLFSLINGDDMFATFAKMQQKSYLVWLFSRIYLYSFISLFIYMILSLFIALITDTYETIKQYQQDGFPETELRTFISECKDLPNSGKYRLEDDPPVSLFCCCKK

Ion channel NompC = Ion channel NompC (Danio rerio, UniProt Q7T1G6); assay: Fluorescence counterscreen assay for TRPML3 agonists: dose response cell-based high-throughput screening assay to identify agonists of the transient receptor potential channel N1 (TRPN1). [Related pubchem assays: 1526, 1424, 1448 ]; format: functional
[4] = target: T4, Disintegrin and metalloproteinase domain-containing protein 17 (Homo sapiens, UniProt P78536); assay: exosite inhibitors of ADAM17, dose response, biochemical (AID 743260)
[5] = target: T5, Microphthalmia-associated transcription factor (Homo sapiens, UniProt O75030); assay: TRPM1 promoter luciferase signal decrease, dose response, MITF inhibitor project, cell-based, SK-MEL-5, cherry-picked, set 3 (AID 493073); format: functional
T5 sequence (O75030 whole entry): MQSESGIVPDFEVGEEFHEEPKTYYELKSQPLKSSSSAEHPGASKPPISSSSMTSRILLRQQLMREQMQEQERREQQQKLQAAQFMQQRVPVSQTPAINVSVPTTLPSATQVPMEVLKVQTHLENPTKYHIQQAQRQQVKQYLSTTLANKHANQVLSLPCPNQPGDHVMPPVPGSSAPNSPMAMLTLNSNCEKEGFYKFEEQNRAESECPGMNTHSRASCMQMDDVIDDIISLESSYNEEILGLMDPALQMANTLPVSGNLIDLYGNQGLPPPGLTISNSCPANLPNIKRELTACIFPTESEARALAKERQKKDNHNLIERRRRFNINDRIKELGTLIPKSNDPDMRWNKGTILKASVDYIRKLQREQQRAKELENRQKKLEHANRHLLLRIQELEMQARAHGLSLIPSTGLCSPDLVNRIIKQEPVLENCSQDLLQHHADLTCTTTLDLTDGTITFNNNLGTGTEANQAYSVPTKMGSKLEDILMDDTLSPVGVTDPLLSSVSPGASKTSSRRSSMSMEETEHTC

[6] = inhibitors of PGC1a acetylation in cells, dose response, cell-based, cherry-picked samples (AID 720514); format: functional;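 note: potency may reflect raised or lowered acetylation signal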
[7] = ADAM10 inhibitors, peptide cleavage, dose response, biochemical, QFRET (AID 743254);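 note: ADAM10 enzyme with the DM2 quenched FRET peptide as substrate; EDANS fluorescence gain as the protease cuts the substrate; inhibitor potency against ADAM10 proteolytic activity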
[8] = target: T4, Disintegrin and metalloproteinase domain-containing protein 17; assay: ADAM17 protease inhibitors, dose response, counter-screen for ADAM10 exosite inhibitor project, biochemical, quenched FRET substrate (AID 743253)
Nonstructural protein 1 = Nonstructural protein 1 (Influenza A virus, UniProt Q194T2); format: functional, Influenza A virus (A/California/07/2009(H1N1))
Paired box protein Pax-8 = Paired box protein Pax-8 (Homo sapiens, UniProt Q06710); assay: inhibitors of PAX8-driven TPO luciferase reporter, dose response, RMG-I cells, cherry-pick (AID 687027); format: functional, cell-based;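 note: luciferase reporter driven by Pax8 target thyroperoxidase promoter measured by SteadyGlo luminescence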
[9] = non-specific cell cytotoxicity, dose response, cytotoxicity control for PAX8 inhibitor project, plate reader, dry powder samples (AID 743021); format: functional, cell-based
[10] = HeLa cell cytotoxicity, dose response, cytotoxicity control for MgcRacGAP inhibitor project (AID 624300); format: functional
[11] = target: T6, Rac GTPase-activating protein 1 (Homo sapiens, UniProt Q9H0H5); assay: MgcRacGAP GTPase-activating activity inhibitors, confirmation, biochemical, ADP Hunter fluorescence, primary and confirmatory (AID 624330); format: functional
T6 sequence (Q9H0H5 whole entry): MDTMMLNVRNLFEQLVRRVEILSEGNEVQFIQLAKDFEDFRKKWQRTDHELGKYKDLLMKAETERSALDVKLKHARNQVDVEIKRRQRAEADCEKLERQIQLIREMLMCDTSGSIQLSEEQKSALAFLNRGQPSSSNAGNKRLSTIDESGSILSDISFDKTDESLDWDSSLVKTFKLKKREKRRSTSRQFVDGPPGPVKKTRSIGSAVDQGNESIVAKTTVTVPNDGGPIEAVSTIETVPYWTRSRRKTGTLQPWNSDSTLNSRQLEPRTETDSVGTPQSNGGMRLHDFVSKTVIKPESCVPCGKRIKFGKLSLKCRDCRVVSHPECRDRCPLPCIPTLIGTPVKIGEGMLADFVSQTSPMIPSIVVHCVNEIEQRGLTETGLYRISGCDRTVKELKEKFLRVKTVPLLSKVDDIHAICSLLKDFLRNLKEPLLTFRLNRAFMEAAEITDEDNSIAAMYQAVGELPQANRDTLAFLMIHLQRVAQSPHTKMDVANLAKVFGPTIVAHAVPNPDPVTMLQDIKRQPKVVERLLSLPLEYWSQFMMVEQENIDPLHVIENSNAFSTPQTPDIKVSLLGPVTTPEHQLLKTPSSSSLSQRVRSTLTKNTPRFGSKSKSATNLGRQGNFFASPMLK

[12] = target: T7, Sentrin-specific protease 1 (Homo sapiens, UniProt Q9P0U3); assay: potency of human SENP1 inhibitors, dose response, biochemical, kinetic FRET (AID 651697); format: functional; conditions: read-out: IC50_Mean
T7 sequence (Q9P0U3 whole entry): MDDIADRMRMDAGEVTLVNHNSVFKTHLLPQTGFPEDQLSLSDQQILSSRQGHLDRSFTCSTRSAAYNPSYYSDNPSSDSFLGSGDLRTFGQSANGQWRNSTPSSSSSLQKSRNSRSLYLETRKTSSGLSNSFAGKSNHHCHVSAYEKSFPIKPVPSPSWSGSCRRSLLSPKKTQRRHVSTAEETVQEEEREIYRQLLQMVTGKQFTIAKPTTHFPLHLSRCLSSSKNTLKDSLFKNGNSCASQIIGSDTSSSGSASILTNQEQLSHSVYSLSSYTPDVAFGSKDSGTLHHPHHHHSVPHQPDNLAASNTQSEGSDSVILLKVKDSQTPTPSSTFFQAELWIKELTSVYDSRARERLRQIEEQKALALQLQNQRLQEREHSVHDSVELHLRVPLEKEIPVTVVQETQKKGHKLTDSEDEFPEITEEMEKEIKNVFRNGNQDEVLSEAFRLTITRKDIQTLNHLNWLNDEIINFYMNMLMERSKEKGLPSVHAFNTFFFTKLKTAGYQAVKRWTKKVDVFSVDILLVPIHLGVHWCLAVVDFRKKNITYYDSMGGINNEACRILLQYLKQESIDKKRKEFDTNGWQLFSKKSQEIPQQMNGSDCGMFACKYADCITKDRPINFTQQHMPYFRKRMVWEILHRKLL

[13] = target: T7, Sentrin-specific protease 1; assay: Dose response confirmation of small molecule inhibitors of the catalytic domain of the SUMO protease, SENP1 in a FRET assay.; format: functional; conditions: read-out: IC50_Mean
[14] = target: T8, Carboxy-terminal domain RNA polymerase II polypeptide A small phosphatase 1 (Homo sapiens, UniProt Q9GZU7); assay: inhibitors of CTDSP1, concentration-response testing, biochemical assay, absorbance-based, actives from ultra-high-throughput screening (AID 540297); format: functional
T8 sequence (Q9GZU7 whole entry): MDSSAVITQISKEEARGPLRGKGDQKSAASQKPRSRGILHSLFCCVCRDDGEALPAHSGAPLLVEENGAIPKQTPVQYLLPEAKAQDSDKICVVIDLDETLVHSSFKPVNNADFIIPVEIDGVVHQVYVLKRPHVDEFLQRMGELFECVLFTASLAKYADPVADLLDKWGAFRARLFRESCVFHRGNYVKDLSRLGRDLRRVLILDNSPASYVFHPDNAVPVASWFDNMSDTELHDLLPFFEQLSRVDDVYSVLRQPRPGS

[15] = target: T9, Probable nicotinate-nucleotide adenylyltransferase (Staphylococcus aureus (strain N315), UniProt P65502); format: functional, Staphylococcus aureus subsp. aureus N315;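 for IC50 Mean: confirmatory dose-response retesting of NadD inhibitor hits first found in an ultra-high-throughput screen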
[16] = target: T9, Probable nicotinate-nucleotide adenylyltransferase; format: functional, Staphylococcus aureus subsp. aureus N315; conditions: read-out: IC50_Mean
[17] = target: COUP transcription factor 2 (Homo sapiens, UniProt P24468); assay: Luminescence-based cell-based high throughput dose response assay to identify inhibitors of COUP-TFII (NR2F2).; format: functional;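 note: HEK293 cells transiently cotransfected with COUP-TFII expression vector and reporter; luciferase reporter luminescence driven by COUP-TFII from the pX2-168 reporter plasmid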
[18] = inhibitors of HIV Env-driven cell fusion, dose response, cherry-pick (AID 652057); format: functional, cell-based
[19] = CEM21 lymphoblast cell cytotoxicity, dose response, cytotoxicity control for viral fusion inhibitor project, CellTiter-Glo luminescence, cherry-picked (AID 652042); format: functional, cell-based;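 note: potency for signal decrease meaning cytotoxicity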

T4 sequence (P78536 whole entry, the tested form may be a part): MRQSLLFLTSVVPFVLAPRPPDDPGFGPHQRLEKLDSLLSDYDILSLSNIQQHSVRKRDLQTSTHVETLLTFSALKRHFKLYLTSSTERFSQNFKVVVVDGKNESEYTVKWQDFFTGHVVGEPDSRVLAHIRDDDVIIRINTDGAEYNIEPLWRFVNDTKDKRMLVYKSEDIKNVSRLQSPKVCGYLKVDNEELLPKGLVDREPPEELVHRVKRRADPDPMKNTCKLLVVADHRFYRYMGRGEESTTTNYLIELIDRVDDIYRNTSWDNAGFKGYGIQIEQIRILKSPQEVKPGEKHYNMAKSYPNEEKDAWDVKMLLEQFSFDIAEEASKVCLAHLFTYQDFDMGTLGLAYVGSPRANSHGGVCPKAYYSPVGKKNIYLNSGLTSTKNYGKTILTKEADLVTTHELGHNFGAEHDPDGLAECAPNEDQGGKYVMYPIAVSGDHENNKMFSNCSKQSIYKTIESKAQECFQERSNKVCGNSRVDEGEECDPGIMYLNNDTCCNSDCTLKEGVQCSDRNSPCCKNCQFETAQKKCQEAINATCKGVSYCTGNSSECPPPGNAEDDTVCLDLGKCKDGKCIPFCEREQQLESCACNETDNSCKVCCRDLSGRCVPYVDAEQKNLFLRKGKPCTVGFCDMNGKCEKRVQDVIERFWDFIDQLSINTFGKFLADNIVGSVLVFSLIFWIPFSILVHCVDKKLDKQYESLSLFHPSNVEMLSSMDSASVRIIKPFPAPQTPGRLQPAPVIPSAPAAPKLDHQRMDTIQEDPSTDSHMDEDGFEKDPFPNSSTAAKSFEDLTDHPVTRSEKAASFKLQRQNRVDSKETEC
T9 sequence (P65502 whole entry): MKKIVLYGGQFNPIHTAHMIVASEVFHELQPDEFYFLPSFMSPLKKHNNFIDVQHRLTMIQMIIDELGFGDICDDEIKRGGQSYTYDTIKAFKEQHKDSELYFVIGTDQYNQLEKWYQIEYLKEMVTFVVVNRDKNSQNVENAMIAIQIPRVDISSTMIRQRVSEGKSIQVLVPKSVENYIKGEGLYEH
Paired box protein Pax-8, sequence (Q06710 whole entry): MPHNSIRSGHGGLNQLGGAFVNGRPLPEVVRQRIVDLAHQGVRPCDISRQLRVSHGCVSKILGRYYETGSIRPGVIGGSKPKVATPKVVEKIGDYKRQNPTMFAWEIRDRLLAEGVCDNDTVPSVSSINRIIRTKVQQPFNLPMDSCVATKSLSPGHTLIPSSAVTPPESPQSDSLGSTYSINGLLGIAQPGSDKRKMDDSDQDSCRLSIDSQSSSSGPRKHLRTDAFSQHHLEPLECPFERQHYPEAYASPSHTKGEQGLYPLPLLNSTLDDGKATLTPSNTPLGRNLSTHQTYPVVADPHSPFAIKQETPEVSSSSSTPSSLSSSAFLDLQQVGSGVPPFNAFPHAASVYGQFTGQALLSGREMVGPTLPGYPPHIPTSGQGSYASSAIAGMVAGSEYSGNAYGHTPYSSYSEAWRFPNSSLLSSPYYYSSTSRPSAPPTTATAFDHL
Nonstructural protein 1, sequence (Q194T2 whole entry): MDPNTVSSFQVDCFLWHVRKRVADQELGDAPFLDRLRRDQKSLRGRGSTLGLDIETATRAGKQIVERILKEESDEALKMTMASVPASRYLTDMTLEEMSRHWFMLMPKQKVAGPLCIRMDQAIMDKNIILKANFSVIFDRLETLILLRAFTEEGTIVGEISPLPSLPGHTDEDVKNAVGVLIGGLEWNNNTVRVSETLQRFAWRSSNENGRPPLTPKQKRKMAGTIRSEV
Ion channel NompC, sequence (Q7T1G6 whole entry, the tested form may be a part): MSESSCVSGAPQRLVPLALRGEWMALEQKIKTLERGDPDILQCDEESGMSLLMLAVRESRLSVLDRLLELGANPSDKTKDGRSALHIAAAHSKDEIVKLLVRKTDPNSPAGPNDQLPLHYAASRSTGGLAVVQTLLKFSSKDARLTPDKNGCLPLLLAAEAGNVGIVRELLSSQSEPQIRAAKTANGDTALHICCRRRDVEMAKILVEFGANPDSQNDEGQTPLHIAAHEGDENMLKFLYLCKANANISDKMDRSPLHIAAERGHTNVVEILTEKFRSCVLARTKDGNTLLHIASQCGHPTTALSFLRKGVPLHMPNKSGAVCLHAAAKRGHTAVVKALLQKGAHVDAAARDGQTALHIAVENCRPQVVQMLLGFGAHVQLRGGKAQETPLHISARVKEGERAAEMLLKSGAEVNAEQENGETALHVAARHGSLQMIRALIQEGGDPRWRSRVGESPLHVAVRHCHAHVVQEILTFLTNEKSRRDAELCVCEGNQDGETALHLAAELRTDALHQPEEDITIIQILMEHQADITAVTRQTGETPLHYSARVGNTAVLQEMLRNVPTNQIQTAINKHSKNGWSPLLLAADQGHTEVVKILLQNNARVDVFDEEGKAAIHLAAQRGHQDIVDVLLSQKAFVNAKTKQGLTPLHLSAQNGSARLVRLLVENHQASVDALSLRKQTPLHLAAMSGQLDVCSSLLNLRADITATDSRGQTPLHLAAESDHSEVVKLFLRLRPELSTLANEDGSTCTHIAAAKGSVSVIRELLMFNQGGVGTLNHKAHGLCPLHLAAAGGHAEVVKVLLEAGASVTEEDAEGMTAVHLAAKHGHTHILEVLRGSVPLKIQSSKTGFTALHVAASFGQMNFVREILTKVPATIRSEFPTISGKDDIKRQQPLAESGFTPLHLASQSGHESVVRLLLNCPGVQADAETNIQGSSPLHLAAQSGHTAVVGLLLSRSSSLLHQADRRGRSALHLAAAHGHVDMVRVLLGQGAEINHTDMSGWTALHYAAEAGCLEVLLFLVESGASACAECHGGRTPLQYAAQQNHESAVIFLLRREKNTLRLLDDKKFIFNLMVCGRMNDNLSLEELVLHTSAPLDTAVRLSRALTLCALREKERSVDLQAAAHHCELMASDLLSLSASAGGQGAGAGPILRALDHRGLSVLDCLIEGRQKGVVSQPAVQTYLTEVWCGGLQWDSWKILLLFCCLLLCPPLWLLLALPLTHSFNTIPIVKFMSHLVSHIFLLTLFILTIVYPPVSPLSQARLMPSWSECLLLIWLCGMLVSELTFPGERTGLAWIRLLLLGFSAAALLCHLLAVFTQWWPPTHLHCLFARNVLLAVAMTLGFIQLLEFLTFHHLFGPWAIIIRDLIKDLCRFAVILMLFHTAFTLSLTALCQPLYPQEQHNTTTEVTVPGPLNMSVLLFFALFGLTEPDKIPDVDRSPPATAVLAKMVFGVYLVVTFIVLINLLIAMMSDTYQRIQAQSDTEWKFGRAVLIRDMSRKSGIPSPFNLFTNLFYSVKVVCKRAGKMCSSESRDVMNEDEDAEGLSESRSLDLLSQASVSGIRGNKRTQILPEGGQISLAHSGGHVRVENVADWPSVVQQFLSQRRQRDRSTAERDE
COUP transcription factor 2, sequence (P24468 whole entry, the tested form may be a part): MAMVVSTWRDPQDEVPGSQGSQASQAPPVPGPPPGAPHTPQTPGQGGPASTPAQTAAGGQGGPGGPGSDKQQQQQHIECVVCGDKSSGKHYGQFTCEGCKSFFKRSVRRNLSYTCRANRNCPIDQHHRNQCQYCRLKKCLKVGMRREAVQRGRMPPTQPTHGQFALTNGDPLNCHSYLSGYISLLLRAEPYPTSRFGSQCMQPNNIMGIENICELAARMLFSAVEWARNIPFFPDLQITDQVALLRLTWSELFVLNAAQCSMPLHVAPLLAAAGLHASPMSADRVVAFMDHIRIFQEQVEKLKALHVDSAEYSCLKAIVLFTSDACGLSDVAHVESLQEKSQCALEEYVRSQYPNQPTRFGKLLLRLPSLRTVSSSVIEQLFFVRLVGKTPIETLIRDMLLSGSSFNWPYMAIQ

Structure (SMILES): O=c1c2ccccc2oc2ccc(NCCCn3ccnc3)cc12
- EC50 [1]: 55.2 µM (active)
- EC50 [2]: 50.5 µM (active)
- AC50 [3]: > 52 µM (inactive)

Structure (SMILES): C=C(C)CN1CCN(S(=O)(=O)c2ccc(C)c(N(C)S(=O)(=O)c3ccc(C)cc3)c2C)CC1
- EC50 (Mucolipin-3): 2.76 µM (active)
- EC50 (Ion channel NompC): > 29.9 µM (not active)
- IC50 [4]: > 69.5 µM (inactive)

Structure (SMILES): CCC(=O)N1CCN(c2ccc(Cl)cc2NC(=O)c2ccc([N+](=O)[O-])o2)CC1
- AC50 [5]: 12.4 µM (active)
- AC50 [6]: 29.4 µM (active)

Structure (SMILES): CCn1nc(C(=O)OC(C(=O)c2c[nH]c3ccccc23)c2ccccc2)c2ccccc2c1=O (centres undefined)
- IC50 [7]: > 69.5 µM (inactive)
- IC50 [8]: > 69.5 µM (inactive)

Structure (SMILES): CCS(=O)(=O)c1ccc(N=Nc2ccc(O)c3ncccc23)c(OC)c1
- IC50 (Nonstructural protein 1): 9.78 µM (active)
- AC50 [5]: 9.23 µM (active)
- AC50 (Paired box protein Pax-8): 1.19 µM (active)
- AC50 [9]: 50.2 µM (active)

Structure (SMILES): CCOc1cc(C2NN=C(c3ccc(C)cc3)S2)ccc1O (centres undefined)
- CC50 [10]: 100 µM (active)
- IC50 [11]: 112 µM (active)
- AC50 [3]: > 52 µM (inactive)

Structure (SMILES): COC(=O)C1=CC(C(=O)c2cccs2)=NN(c2ccc(OC)cc2)C1C(=O)OC (centres undefined)
- IC50 [12]: 27.9 µM (inactive)
- IC50 [13]: 34.5 µM (inactive)

Structure (SMILES): OC(c1ccccc1)(c1nc(-c2ccc(Cl)cc2)cs1)C(F)(F)F (centres undefined)
- IC50 [7]: 13.9 µM (inactive)
- IC50 [8]: > 69.5 µM (inactive)

Structure (SMILES): COc1cccc(N2[C@@H](CC(=O)O)c3cc(C(F)(F)F)ccc3S2(=O)=O)c1
- IC50 [14]: 5.53 µM (active)
- IC50 [15]: 17.4 µM (active)
- IC50 [16]: 31.7 µM (active)

Structure (SMILES): CCc1cc(-c2nnn(CCC3COCCO3)c2CC)ccc1-c1cn(Cc2ccc3ccccc3c2)nn1 (centres undefined)
- IC50 [17]: 10 µM (inactive)

Structure (SMILES): C[C@@H]1CN([C@@H](C)CO)C(=O)c2cccc(NC(=O)c3cnccn3)c2O[C@H]1CN(C)Cc1ccc(Cl)c(Cl)c1
- AC50 [18]: 53.4 µM (active)
- AC50 [19]: 49.9 µM (active)

Structure (SMILES): COc1ccc(O)c(/C=N/n2c(-c3ccco3)cs/c2=N\c2cccnc2)c1
- IC50 [12]: 49.7 µM (inactive)
- IC50 [13]: 23.1 µM (inactive)
